Our source for the IC50 and inhibition in vivo values is ChEMBL document CHEMBL5505955, “Exploring the potential of histone demethylase inhibition in multi-therapeutic approaches for cancer treatment” (Eur J Med Chem, 2024).

Structures are written as SMILES.

The target of assay [1] is T1, Lysine-specific histone demethylase 1A (Homo sapiens, UniProt O60341). Description: Inhibition of human recombinant LSD1 incubated for 60 mins by fluorescence based analysis.
Assay [2] addresses T2, Amine oxidase [flavin-containing] A (Homo sapiens, UniProt P21397).
T2 sequence (P21397 whole entry): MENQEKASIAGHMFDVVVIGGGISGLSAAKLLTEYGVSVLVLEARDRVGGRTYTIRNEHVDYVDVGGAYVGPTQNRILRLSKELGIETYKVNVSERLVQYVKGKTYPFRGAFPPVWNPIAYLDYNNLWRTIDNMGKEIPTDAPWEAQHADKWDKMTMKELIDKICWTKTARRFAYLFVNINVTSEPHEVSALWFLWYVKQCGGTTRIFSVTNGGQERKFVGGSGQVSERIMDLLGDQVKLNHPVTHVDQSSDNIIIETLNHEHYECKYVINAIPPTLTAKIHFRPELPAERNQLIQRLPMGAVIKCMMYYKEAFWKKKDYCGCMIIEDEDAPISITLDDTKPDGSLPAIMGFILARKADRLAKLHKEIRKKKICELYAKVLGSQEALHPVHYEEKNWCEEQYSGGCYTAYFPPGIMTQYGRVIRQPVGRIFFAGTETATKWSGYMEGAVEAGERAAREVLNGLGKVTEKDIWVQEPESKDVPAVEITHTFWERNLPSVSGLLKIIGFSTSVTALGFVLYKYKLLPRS
Put plainly: Inhibition of MAO-A (unknown origin) measured by MAO-GloTM method.

For another assay, the system named is A549. Put plainly: Antiproliferative activity against human A549 cells assessed as reduction in cell viability incubated for 72 hrs by MTT assay. The assay is classed as functional, cell-based. To be noted: A549, 72 h.
For a further assay, the system named is MIA PaCa-2. Put plainly: Antiproliferative activity against human MIA PaCa-2 cells assessed as reduction in cell viability incubated for 72 hrs by MTT assay. As to conditions: MIA PaCa-2, 72 h. The assay is classed as functional, cell-based. In general terms: Tetrazolium dyes change colour on reduction, which living cells bring about.
The test system of another assay is A2058. Put plainly: Antiproliferative activity against human A2058 cells assessed as reduction in cell viability incubated for 72 hrs by MTT assay. The assay is classed as functional, cell-based. To be noted: A2058, 72 h.
A further assay deals with HT-29. Put plainly: Antiproliferative activity against human HT-29 cells assessed as reduction in cell viability incubated for 72 hrs by MTT assay. The assay is classed as functional, cell-based. As to conditions: HT-29, 72 h.
For a further assay, the system named is Bel-7402. Description: animal or person. As to conditions: Mus musculus, Bel-7402, po, 504 h, read-out: TGI.
The target of the next assay is Histone deacetylase 1 (Homo sapiens, UniProt Q13547). Description: Inhibition of HDAC1 (unknown origin).
Chain of Histone deacetylase 1 (Q13547 whole entry): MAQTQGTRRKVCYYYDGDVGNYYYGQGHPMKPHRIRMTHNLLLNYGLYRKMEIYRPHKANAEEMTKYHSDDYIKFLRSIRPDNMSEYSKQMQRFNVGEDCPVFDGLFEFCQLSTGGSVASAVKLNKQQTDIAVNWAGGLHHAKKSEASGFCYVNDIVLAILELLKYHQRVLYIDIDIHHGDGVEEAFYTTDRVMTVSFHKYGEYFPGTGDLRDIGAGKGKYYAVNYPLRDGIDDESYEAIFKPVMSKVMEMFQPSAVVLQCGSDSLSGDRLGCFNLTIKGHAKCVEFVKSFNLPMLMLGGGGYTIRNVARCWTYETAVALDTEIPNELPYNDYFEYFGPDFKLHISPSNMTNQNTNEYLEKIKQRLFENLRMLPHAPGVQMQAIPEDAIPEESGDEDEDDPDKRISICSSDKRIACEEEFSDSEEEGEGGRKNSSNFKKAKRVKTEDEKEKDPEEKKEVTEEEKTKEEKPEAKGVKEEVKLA
Assay [3] deals with T1, Lysine-specific histone demethylase 1A.
Description: Inhibition of LSD1 (unknown origin)
The next assay relates to NCI-H1975. Put plainly: cells. As to conditions: Homo sapiens.

Description for Bel-7402: Anticancer activity against human Bel-7402 cells xenografted in nude mouse model assessed as tumor growth inhibition at 60 mg/kg, IG administered for 21 days relative to control

With `COC1=CC(=O)OC(/C=C/c2ccccc2)C1` (stereo unspecified), the half-inhibitory concentration (IC50) – broadly, the concentration at which inhibition is half-maximal – in assay [1] came out at 3850 nM; in [2] it was 1.29 nM. In the case of `O=C(N/N=C/c1ccccc1O)c1cccc(Cl)c1`, the IC50 with A549 came to 2400 nM; in the assay on MIA PaCa-2, 9500 nM; in the assay on A2058, 6500 nM; with HT-29, 950 nM. Turning to `COc1ccc(S(=O)(=O)N(CCSC(=S)N2CCN(C)CC2)c2cc(OC)c(OC)c(OC)c2)cc1`, the inhibition in vivo at 60 mg/kg in the assay on Bel-7402 is 43%.

On to `NC1CC1c1ccc(NC(=O)CCC(=O)NCCCNCCCCNCCCNC(=O)c2ccc(NC(=O)CCCCCCC(=O)NO)cc2)cc1` (stereo unspecified), for which the concentration for half-maximal inhibition (IC50) on Histone deacetylase 1 was 42.5 nM; in [3] it was 3850 nM. In assay [3], `O=C(O)c1ccc(CN2CCC(CN[C@@H]3C[C@H]3c3ccccc3)CC2)cc1` [GSK2879552] yielded an IC50 of 1700 nM. `C=CC(=O)Nc1cc(Nc2nccc(-c3cn(C)c4ccccc34)n2)c(OC)cc1N(C)CCN(C)C` [OSIMERTINIB] had a concentration for half-maximal inhibition (IC50) in the assay with NCI-H1975 of […].
